We go through one compound from US20190352511A1, “LANTHANIDE COMPLEXES COMPRISING DENDRIMERS” (UNIVERSITE D'ORLEANS, priority 2017, published 2019).

Data set [1] relates to HeLa cells. In words: Confocal fluorescence microscopy imaging. The settings on record: 30 min incubation, 1.5 μM, λex 633 nm (laser 6%), λem 650-800 nm. The format is cell-based, human. As to the method:
HeLa cells after 30 min of incubation with a solution of 1.5 μM compound 9 and dendrimer (Ln8-)G3P-(Bodipy1)n (n=16, 32; Ln=Yb^3+, Nd^3+). The emission of aza-BODIPY (λex: 633 nm, λem: 650-800 nm) was observed under excitation at 633 nm (laser power at 6%). (Top) Yb8-G3P-(Bodipy1)16 (A), Nd8-G3P-(Bodipy1)16 (B), G3P-(Bodipy1)16 (C), Compound 9 (D) and (bottom) Yb8-G3P-(Bodipy1)32 (A), Nd8-G3P-(Bodipy1)32 (B), G3P-(Bodipy1)32 (C), untreated cells (D). The images are taken in the plane of the cellular nucleus. The white arrows indicate the specific localization of the dendrimers in the lysosomes and the yellow arrows indicate the filopods. 63× magnification lens.
Confocal microscopy experiments were performed to confirm the intracellular localization of the dendrimers (FIG. 7). For this purpose, HeLa cells were incubated for 30 min with a concentration solution of 1.5 μM, which corresponds to ˜89-100% of cell viability. The fluorescence of the dendrimers was observed using a 633 nm laser as the excitation source and the emission of aza-BODIPY was collected between 650 and 800 nm with an optical cut of 1 μm in the z axis. The same laser power was used for the different experiments to compare the signal intensity variations between different dendrimers.

A short description of data set [2]: Photobleaching / photostability under continuous illumination. The format is physicochemical. To be noted: 10 μM in DMSO, uninterrupted illumination at 670 nm for 3 h, emission at 735 nm. As to the method: The experiments were carried out for a solution at 10 μM in DMSO and under uninterrupted illumination at 670 nm, the emission being collected at 735 nm.
To test the photostability of the system, the chromophore (compound 9) and the dendrimers (Ln8-)G3P-(Bodipy1)n (n=16, 32; Ln =Yb^3+, Nd^3+) were continuously illuminated with 670 […]. nm and the emission signal was monitored at 735 nm. […] However, the photostability of G3P-(Bodipy1)16 could be improved by the incorporation of Ln^3+. In addition, it turned out to be dependent on the nature of the lanthanides. […] As for the initial chromophore, compound 9 (FIG. 5) loses 75% of its luminescence intensity after 3 hours of illumination. Therefore, in general, the attachment of the chromophore moieties to the dendrimer structure and the presence of Ln^3+ can be advantageously used to provide and enhance the photostability of the probe.
The continuous illumination of G3P-(Alkyne)x-(Cyanine)y (x=22-24, y=8-10) with a light centered at 665 nm makes it possible to estimate the photostability of the dendrimers which appears to be rather weak. (FIG. 11).

Data set [3] deals with HeLa cells. The data set is described as follows: Alamar Blue cytotoxicity test. It counts as cell-based, human. The settings on record: up to 2 μM, 24 h incubation. As to the method:
In order to determine the potential toxicity of the described dendrimers, an Alamar Blue test was performed on the HeLa […] carcinoma human cell line (FIG. 6). Different concentrations of chromophores (compound 9) and dendrimers (Ln8-)G3P-(Bodipy1)n (n=16, 32; Ln=Yb^3+, Nd^3+) were tested.
In general terms: The colour change of resazurin is a common sign of viable cells or microbes.

A further data set is described as follows: Absorption spectra. It counts as physicochemical. The settings on record: DMSO, low energy main band at 672 nm. An excerpt: For the sake of comparison, the absorption spectrum of compound 9 is multiplied by a factor corresponding to the number of chromophores attached to the branches of the dendrimer, for example, by 16 for (Ln8-) G3P-(Bodipy1)16 and by 32 for (Ln8-) G3P-(Bodipy1)32.
The absorption spectrum of the Bodipy chromophore (compound 9) measured in a DMSO solution has a broad band of up to 770 nm with a low energy main band at 672 nm (ϵ=2.1.10^5 M^−1 cm^−1), FIG. 3). […] On the other hand, the molar coefficient of absorption increases with the number of Bodipy chromophore units attached.
Absorption spectra of the Yb8-G3P-(TPP)32 complex were recorded in DMSO and in the DMSO/(Opti-MEM/FCS, 6: 94%) mixture (FIG. 13).

Data set [4] is described as follows: Absolute quantum yields (Q) in DMSO solution. The format is physicochemical. From the text:
The absolute quantum yields of the chromophore (compound 9) and dendrimers (Ln8-)G3P-(Bodipy1)n (n=16, 32; Ln=Yb^3+, Nd^3+) are summarized in Table 1. Significant decreases (6 and 3.4 times) in quantum emission efficiencies from the aza-BODIPY-COOH chromophoric moieties for the functionalized dendrimers, G3P-(aza-BODIPY)32 and G3P-(aza-BODIPY)16, respectively. […] On the other hand, the Q values are increased by 1.7 and 1.4 times for G3P-(Bodipy1)32 during the encapsulation of the lanthanide cations Yb^3+ and Nd^3+, respectively.

In data set [5] the test system is HeLa cells. The data set is described as follows: Cellular internalization by flow cytometry (NaN3 or 4° C. inhibition). It counts as cell-based, human. To be noted: 1.5 μM; for Cellular internalization, Active (percentage inhibited with NaN3): NaN3 treatment. The protocol: HeLa cells were incubated for 30 min with a 1.5 μM concentration solution of chromophores and dendrimers (Ln8-)G3P-(Bodipy1)n (n=16, 32; Ln=Yb^3+, Nd^3+) as control. In order to block the active and passive transport pathways, HeLa cells were treated with NaN3 (active internalization inhibitor) or pre-incubated at 4° C. for 30 min (inhibition of active and passive pathways) before incubation with the dendrimers.
Cytometry has been used to quantify cell internalization of dendrimers and to better understand signal intensity differences observed in confocal microscopy. The mechanisms of passive (non-dependent energy) and active (energy dependent) internalization of cells have been studied. Active transport was inhibited with sodium azide (NaN3), while incubation at 4° C. inhibited active and passive transport pathways by increasing the plasma membrane stiffness of HeLa cells (S. Vranic, N. Boggetto, V. Contremoulins, S. Mornet, N. Reinhardt, F. Marano, A. Baeza-Squiban, S. Boland, Deciphering the mechanisms of cellular uptake of nanoparticles by accurate evaluation of internalization for cytometry, Particle and Fiber Toxicology, 10 (2013) 1-16).
However, for both types of dendrimers, internalization is consistently higher for those containing Yb^3+ than for those containing Nd^3+. […] For the chromophore compound 9, a relatively strong emission signal was observed and corresponding to 65% internalization of Yb8G3P-(Bodipy1)16. […] Dendrimers enter cells through active and passive transport pathways (FIG. 8). The relative percentages of active or passive internalization vary according to the number of Bodipy chromophore and the presence of Ln^3+. […] However, further studies are needed to clarify the exact mechanisms of active transportation. […]
On the technique in general: In flow cytometry, cells or beads pass a laser one at a time.

The term cell viability denotes a per cent measure of how many cells are alive, often set against a control. Read a high cell viability as less harm to the cells. Take `COc1ccc(-c2cc(-c3ccccc3)n(B(F)F)c2/N=C2\N=C(c3ccccc3)C=C2c2ccc(OCC(=O)O)cc2)cc1` [Compound 9, (Z)-2-(4-(2((1-(difluoroboryl)-3-(4-methoxyphenyl)-5-phenyl-1H-pyrrol-2-yl)imino)-5-phenyl-2H-pyrrol-3-yl)phenoxy)acetic acid]: in the data set with HeLa cells [1], the “intracellular emission signal intensity (confocal)” value is on record as “signal of lower intensity”. Moreover, the “decrease of initial luminescence intensity” value in data set [2] is given as 75%. Further, in the data set with HeLa cells [3], the cell viability is roughly 100%. Moreover, in “Absorption spectra”, the “molar absorption coefficient ϵ” value was 2.1.10^5 M^−1 cm^−1. The “quantum yield ratio versus Yb8-G3P-(aza-BODIPY)16” value in data set [4] is recorded as 3.4 times. Further, in data set [4] (10 μM in DMSO, room temperature, excitation 650 nm, emission collected 660 to 850 nm), the “Q (%) quantum yield” value is 8.04(8) %. In the data set on HeLa cells [5] (difference between internalization inhibited at 4° C. and inhibited with sodium azide), the “Cellular internalization, Passive” value was 81 ± 1%. The “internalization relative to Yb8G3P-(Bodipy1)16” value with HeLa cells [5] (30 min incubation) was found to be 65%. Further, the “Cellular internalization, Active (percentage inhibited with NaN3)” value with HeLa cells [5] (30 min incubation) worked out at 19%; in the data set with HeLa cells [5] (30 min incubation, listed as Composé{acute over ( )}9, 1.5 µM), 18 ± 4%.
